US20040034076A1, “Novel carbamates and carbamides, production and use thereof as endothelin receptor antagonists” (priority 2000, published 2004)

Legend:
human ETA receptor = target: T1, human ETA receptor (Homo sapiens, UniProt P25101); assay: ETA receptor binding test ([125J]-ET1, CHO cell membranes); conditions: cloned human ETA receptor-expressing CHO cell membranes, 25 pM [125J]-ET1, 25° C., 30 min
T1 construct: expressed in transfected cells; host or cells: CHO cells
T1 sequence (P25101 21-427): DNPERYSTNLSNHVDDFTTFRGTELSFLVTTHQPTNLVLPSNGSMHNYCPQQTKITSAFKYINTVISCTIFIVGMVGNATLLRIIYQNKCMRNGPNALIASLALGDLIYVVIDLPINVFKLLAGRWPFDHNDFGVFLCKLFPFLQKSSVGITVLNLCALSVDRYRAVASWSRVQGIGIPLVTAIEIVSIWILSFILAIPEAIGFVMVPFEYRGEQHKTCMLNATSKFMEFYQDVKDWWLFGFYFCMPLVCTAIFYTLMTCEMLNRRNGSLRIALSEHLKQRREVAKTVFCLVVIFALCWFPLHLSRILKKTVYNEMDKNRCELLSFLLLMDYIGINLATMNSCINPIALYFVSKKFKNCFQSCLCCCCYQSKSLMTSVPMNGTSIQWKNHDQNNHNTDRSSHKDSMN
Protocol: (§1) For binding studies, cloned human ETA or ETB receptor-expressing CHO cells were employed.
(§2) The ETA or ETB receptor-expressing CHO cells were proliferated in DMEM NUT MIX F12 medium (Gibco, No. 21331-020) using 10% fetal calf serum (PAA Laboratories GmbH, Linz, No. A15-022), 1 mM glutamine (Gibco No. 25030-024), 100 U/ml of penicillin and 100 μg/ml of streptomycin (Gibco, Sigma No P-0781). After 48 hours, the cells were washed with PBS and incubated at 37° C. for 5 minutes with 0.05% trypsin-containing PBS. Neutralization was then carried out with medium and the cells were collected by centrifugation at 300×g.
(§3) For membrane preparation, the cells were adjusted to a concentration of 10^8 cells/ml of buffer (50 mM tris-HCl buff r, pH 7.4) and then disintegrated by ultrasound (Branson Sonifier 250, 40-70 seconds/constant/output 20).
(§4) For the ETA and ETB receptor binding test, the membranes were suspended in incubation buffer (50 mM tris HCl, pH 7.4 with 5 mM MnCl2, 40 mg/ml of bacitracin and 0.2% of BSA) in a concentration of 50 μg of protein per test batch and incubated at 25° C. with 25 pM of [125J]-ET1 (ETA receptor test) or 25 pM of [125I)-ET3 (ETB receptor test) in the presence and absence of test substance. The nonspecific binding was determined using 10^−7 M ET1. After 30 min, the free and the bound radioligand was separated by filtration through GF/B glass fiber filters (Whatman, England) on a Skatron cell collector (Skatron, Lier, Norway) and the filters were washed with ice-cold tris HCl buffer, pH 7.4 with 0.2% of BSA. The radioactivity collected on the filters was quantified using a Packard 2200 CA liquid scintillation counter.

human ETB receptor = target: T2, human ETB receptor (Homo sapiens, UniProt P24530); assay: ETB receptor binding test ([125I]-ET3, CHO cell membranes); conditions: cloned human ETB receptor-expressing CHO cell membranes, 25 pM [125I]-ET3, 25° C., 30 min
T2 construct: expressed in transfected cells; host or cells: CHO cells
T2 sequence (P24530 27-442): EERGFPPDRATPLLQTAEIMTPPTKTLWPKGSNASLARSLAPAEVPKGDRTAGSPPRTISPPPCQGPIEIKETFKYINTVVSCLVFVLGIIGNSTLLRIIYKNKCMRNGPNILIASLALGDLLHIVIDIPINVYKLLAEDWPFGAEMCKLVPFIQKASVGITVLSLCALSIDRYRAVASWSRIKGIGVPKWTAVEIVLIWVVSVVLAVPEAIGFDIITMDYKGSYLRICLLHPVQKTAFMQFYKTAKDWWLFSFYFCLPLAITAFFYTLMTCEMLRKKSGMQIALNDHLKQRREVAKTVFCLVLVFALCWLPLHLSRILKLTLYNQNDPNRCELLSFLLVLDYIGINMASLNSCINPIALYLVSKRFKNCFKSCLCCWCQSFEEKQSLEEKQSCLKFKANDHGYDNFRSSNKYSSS
Protocol: as §1, §2, §3, §4

SMILES	Ki (human ETA receptor) [nM]	Ki (human ETB receptor) [nM]
COc1cc(OC)nc(OC(C(=O)O)C(NC(=O)OCc2cc(OC)c(OC)cc2[N+](=O)[O-])(c2ccccc2)c2ccccc2)n1 (stereo not drawn) [Compound I-266, N-{[(4,5-Dimethoxy-2-nitrobenzyl)oxy]carbonyl}-2-((4,6-dimethoxy-2-pyrimidinyl)oxy]-3,3-diphenyl-β-alanine]	13	1090
COc1ccc(CN(C)C(=O)NC(c2ccccc2)(c2ccccc2)C(Oc2nc(OC)cc(OC)n2)C(=O)O)cc1 (stereo not drawn) [Compound I-23, 2-[(4,6-Dimethoxy-2-pyrimidinyl)oxy]-N-{[(4-methoxybenzyl)-(methyl)amino]carbonyl}-3,3-diphenyl-β-alanine]	147	6620
COc1ccc(CN(C)C(=O)NC(c2ccccc2)(c2ccccc2)C(Oc2nc(C)cc(C)n2)C(=O)O)cc1 (stereo not drawn) [Compound I-194, 2-[(4,6-Dirnethyl-2-pyrimidinyl)oxy]-N-{[(4-methoxybenzyl)-(methyl)amino]carbonyl}-3,3-diphenyl-β-alanine]	14	2330
COc1ccc(OC(=O)NC(c2ccccc2)(c2ccccc2)C(Oc2nc(OC)cc(OC)n2)C(=O)O)cc1 (stereo not drawn) [Compound I-170, 2-[(4,6-Dimethoxy-2-pyrimidinyl)oxy]-N-[(4-methoxyphenoxy)-carbonyl]-3,3-diphenyl-β-alanine]	120	1930
COc1cc(OC)nc(OC(C(=O)O)C(NC(=O)N(C)Cc2ccccc2)(c2ccccc2)c2ccccc2)n1 (stereo not drawn) [Compound I-260, N-{[Benzyl(methyl)amino]carbonyl}-2-[(4,6-dimethoxy-2-pyrimidinyl)oxy]-3,3-diphenyl-β-alanine]	235	2440
COc1ccc(N(C)C(=O)NC(c2ccccc2)(c2ccccc2)C(Oc2nc(OC)cc(OC)n2)C(=O)O)cc1 (stereo not drawn) [Compound I-121, 2-[(4,6-Dimethoxy-2-pyrimidinyl)oxy]-N-{[4-methoxy(methyl)-anilino]carbonyl}-3,3-diphenyl-β-alanine]	310	≥ 10000
COC(=O)NC(c1ccccc1)(c1ccccc1)C(Oc1nc(OC)cc(OC)n1)C(=O)O (stereo not drawn) [Compound I-230, 2-[(4,6-Dimethoxy-2-pyrimidinyl)oxy]-N-(methoxycarbonyl)-3,3-diphenyl-β-alanine]	89	> 10000
COc1cc(OC)nc(OC(C(=O)O)C(NC(=O)N(C)C)(c2ccccc2)c2ccccc2)n1 (stereo not drawn) [Compound I-11, 2-[(4,6-Dimethoxy-2-pyrimidinyl)oxy]-N-[(dimethylamino)carbonyl]-3,3-diphenyl-β-alanine]	397	> 10000
Cc1cc(C)nc(OC(C(=O)O)C(NC(=O)N2CCCC2)(c2ccccc2)c2ccccc2)n1 (stereo not drawn) [Compound I-26, 2-[(4,6-Dimethyl-2-pyrimidinyl)oxy]-3,3-diphenyl-N-(1-pyrrolidinylcarbonyl)-β-alanine]	53	3850
Cc1cc(C)nc(OC(C(=O)O)C(NC(=O)N(C)C2CCCCC2)(c2ccccc2)c2ccccc2)n1 (stereo not drawn) [Compound I-202, N-{[Cyclohexyl(methyl)amino]carbonyl}-2-[(4,6-dimethyl-2-pyrimidinyl)oxy]-3,3-diphenyl-β-alanine]	19	195
Cc1cc(C)nc(OC(C(=O)O)C(NC(=O)N2CCCCC2)(c2ccccc2)c2ccccc2)n1 (stereo not drawn) [Compound I-52, 2-[(4,6-Dimethyl-2-pyrimidinyl)oxy]-3,3-diphenyl-N-(1-piperidinylcarbonyl)-β-alanine]	73	4220
COc1cc(OC)nc(OC(C(=O)O)C(NC(=O)Oc2ccc(C)c(C)c2)(c2ccccc2)c2ccccc2)n1 (stereo not drawn) [Compound I-168, 2-[(4,6-Dimethoxy-2-pyrimidinyl)oxy]-N-[(3,4-dimethylphenoxy)-carbonyl]-3,3-diphenyl-β-alanine]	105	730
COc1cc(OC)nc(OC(C(=O)O)C(NC(=O)OCc2ccccc2)(c2ccccc2)c2ccccc2)n1 (stereo not drawn) [Compound I-140, N-[(Benzyloxy)carbonyl]-2-[(4,6-dimethoxy-2-pyrimidinyl)oxy]-3,3-diphenyl-β-alanine]	97	2340
CCN(CC)C(=O)NC(c1ccccc1)(c1ccccc1)C(Oc1nc(OC)cc(OC)n1)C(=O)O (stereo not drawn) [Compound I-86, N-[(Diethylamino)carbonyl]-2-[(4,6-dimethoxy-2-pyrimidinyl)oxy]-3,3-diphenyl-β-alanine]	253	> 10000
Cc1cc(C)nc(OC(C(=O)O)C(NC(=O)N2CCOCC2)(c2ccccc2)c2ccccc2)n1 (stereo not drawn) [Compound I-75, 2-[(4,6-Dimethyl-2-pyrimidinyl)oxy]-N-(4-morpholinylcarbonyl)-3,3-diphenyl-β-alanine]	117	3450
COc1cc(OC)nc(OC(C(=O)O)C(NC(=O)N(C)c2ccccc2)(c2ccccc2)c2ccccc2)n1 (stereo not drawn) [Compound I-155, 2-[(4,6-Dimethoxy-2-pyrimidinyl)oxy]-N-[(methylanilino)carbonyl]-3,3-diphenyl-β-alanine]	265	5770
